Source: patent US10988466B2, “Heterocyclic derivatives useful as SHP2 inhibitors” (Jacobio Pharmaceuticals Co., Ltd., priority 2017, dated 2021)
Where two headings read alike, the source gives them in different places.

Legend:
[1] = target: T1, SHP2 (Homo sapiens, UniProt Q06124); assay: Phosphatase assays (IC50), DiFMUP substrate
T1 sequence (Q06124 1-593): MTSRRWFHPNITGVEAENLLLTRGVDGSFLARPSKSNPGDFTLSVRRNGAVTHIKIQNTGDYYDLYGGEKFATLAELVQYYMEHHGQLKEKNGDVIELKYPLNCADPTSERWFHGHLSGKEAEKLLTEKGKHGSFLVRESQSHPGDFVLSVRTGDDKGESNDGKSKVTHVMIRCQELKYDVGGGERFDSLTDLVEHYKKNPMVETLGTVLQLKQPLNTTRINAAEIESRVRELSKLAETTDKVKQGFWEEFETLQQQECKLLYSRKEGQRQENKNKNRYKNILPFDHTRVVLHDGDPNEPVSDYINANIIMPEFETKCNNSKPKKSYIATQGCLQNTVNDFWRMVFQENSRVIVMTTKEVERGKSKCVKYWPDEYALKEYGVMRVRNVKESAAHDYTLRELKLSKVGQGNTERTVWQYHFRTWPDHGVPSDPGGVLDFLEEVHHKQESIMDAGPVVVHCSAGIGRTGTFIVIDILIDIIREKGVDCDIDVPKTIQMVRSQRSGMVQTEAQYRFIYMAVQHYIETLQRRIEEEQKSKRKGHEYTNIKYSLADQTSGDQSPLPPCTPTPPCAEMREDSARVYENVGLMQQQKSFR

[2] = target: T1, SHP2; assay: biochemical; details: read-out: SHP2 inhibition (%)@0.1 μM
[3] = tested on: MV-4-11; assay: Cell proliferation assay (MTS/PMS); format: cell-based; details: Homo sapiens, MV4-11
[4] = SHP2 0.5 nM activated with dPEG8 peptide, DiFMUP 12 μM, 30 min
[5] = MV-4-11 cell proliferation, MTS/PMS readout at day 8, compounds added 24 hours after plating, read-out: IC50

| SMILES | IC50 [1, 4] [nM] | inhibition at 0.1 µM [2] [%] | IC50 [3] [nM] | IC50 [1] [nM] | IC50 [3, 5] [nM] |
| --- | --- | --- | --- | --- | --- |
| Nc1nc(N2CCC3(CC2)c2ccccc2C[C@H]3N)cnc1Sc1ccnc(N)c1Cl [Example 1, (R)-1′-(6-amino-5-((2-amino-3-chloropyridin-4-yl)thio)pyrazin-2-yl)-2,3-dihydrospiro[indene-1,4′-piperidin]-2-amine] | 8 | 87 | – | – | – |
| Nc1nc(N2CCC3(CC2)Cc2ccccc2[C@H]3N)cnc1Sc1ccnc(N)c1Cl [Example 2, (S)-1′-(6-amino-5-((2-amino-3-chloropyridin-4-yl)thio)pyrazin-2-yl)-1,3-dihydrospiro[indene-2,4′-piperidin]-1-amine] | 4 | 75 | 2.7 | – | – |
| COc1ccc2c(c1)[C@@H](N)C1(CCN(c3cnc(Sc4ccnc(N)c4Cl)c(N)n3)CC1)C2 [Example 5, (S)-1′-(6-amino-5-((2-amino-3-chloropyridin-4-yl)thio)pyrazin-2-yl)-6-methoxy-1,3-dihydro spiro[indene-2,4′-piperidin]-1-amine] | – | 84 | 4.8 | 6 | – |
| CC(=O)N1CC(F)(F)c2c(Sc3ncc(N4CCC5(CC4)CC4CC4[C@H]5N)nc3N)cccc21 (stereo partly drawn) [Example 7, 1-(4-((3-amino-5-((2R)-2-aminospiro [bicyclo[3.1.0]hexane-3,4′-piperidin]-1′-yl)pyrazin-2-yl)thio)-3,3-difluoro-indolin-1-yl)ethan-1-one] | – | 81 | – | 22 | – |
| Nc1nc(N2CCC3(CC2)Cc2ncccc2[C@H]3N)cnc1Sc1ccnc(N)c1Cl [Example 10, (S)-1′-(6-amino-5-((2-amino-3-chloropyridin-4-yl)thio)pyrazin-2-yl)-5,7-dihydrospiro [cyclopenta[b]pyridine-6,4′-piperidin]-5-amine] | – | – | – | 7 | 4 |
| Nc1nc(N2CCC3(CC2)Cc2nc(Cl)ccc2[C@H]3N)cnc1Sc1ccnc(N)c1Cl [Example 19, (S)-1′-(6-amino-5-((2-amino-3-chloropyridin-4-yl)thio)pyrazin-2-yl)-2-chloro-5,7-dihydrospiro[cyclopenta [b]pyridine-6,4′-piperidin]-5-amine] | – | 86 | – | 7 | – |
| Nc1nc(N2CCC3(CC2)Cc2sc(Cl)nc2[C@H]3N)cnc1Sc1ccnc(N)c1Cl [Example 44, (S)-1′-(6-amino-5-((2-amino-3-chloropyridin-4-yl)thio)pyrazin-2-yl)-2-chloro-4,6-dihydro-spiro[cyclopenta[d]thiazole-5,4′-piperidin]-4-amine] | – | 88 | – | 4 | 7.4 |
| Nc1nc(N2CCC3(CC2)CC2CC2[C@H]3N)cnc1Sc1ccnc(N)c1Cl (stereo partly drawn) [Example 81, (2R)-1′-(6-amino-5-((2-amino-3-chloropyridin-4-yl)thio)pyrazin-2-yl)spiro [bicyclo[3.1.0]hexane-3,4′-piperidin]-2-amine] | – | 75 | – | 8 | – |
| Nc1nc(N2CCC3(CC2)Cc2ncccc2[C@H]3N)cnc1Sc1cccc(Cl)c1Cl [Example 84, (S)-1′-(6-amino-5-((2,3-dichloro-phenyl)thio)pyrazin-2-yl)-5,7-dihydrospiro[cyclopenta [b]pyridine-6, 4′-piperidin]-5-amine] | – | – | – | 3 | – |
| CN(C)c1nccc(Sc2cnc(N3CCC4(CC3)Cc3ncccc3[C@H]4N)cn2)c1Cl [Example 85, (S)-1′-(5-((3-chloro-2-(dimethyl-amino)pyridin-4-yl)thio)pyrazin-2-yl)-5,7-dihydrospiro [cyclopenta [b]pyridine-6,4′-piperidin]-5-amine] | – | – | – | 6 | – |
| N[C@@H]1c2cccnc2CC12CCN(c1cnc(Sc3ccncc3)cn1)CC2 [Example 86, (S)-1′-(5-(pyridin-4-ylthio)pyrazin-2-yl)-5,7-dihydrospiro [cyclopenta [b]pyridine-6,4′-piperidin]-5-amine] | – | – | – | 14 | – |
| Nc1nc(N2CCC3(CC2)Cc2ncccc2[C@H]3N)cnc1Sc1ccncc1F [Example 87, (S)-1′-(6-amino-5-((3-fluoropyridin-4-yl)thio)pyrazin-2-yl)-5,7-dihydrospiro[cyclopenta [b]pyridine-6,4′-piperidin]-5-amine] | – | – | – | 9 | – |
| Nc1nc(N2CCC3(CC2)Cc2scnc2[C@H]3N)cnc1Sc1ccncc1F [Example 88, (S)-1′-(6-amino-5-((3-fluoropyridin-4-yl)thio)pyrazin-2-yl)-4,6-dihydrospiro[cyclopenta [d]thiazole-5,4′-piperidin]-4-amine] | – | – | – | 36 | – |
| Nc1nccc(Sc2cnc(N3CCC4(CC3)Cc3ncccc3[C@H]4N)cn2)c1F [Example 92, (S)-1′-(5-((2-amino-3-fluoropyridin-4-yl)thio)pyrazin-2-yl)-5,7-dihydrospiro[cyclopenta [b]pyridine-6,4′-piperidin]-5-amine] | – | 92 | – | – | 9 |
| Nc1nccc(Sc2cnc(N3CCC4(CC3)Cc3sc(Cl)nc3[C@H]4N)cn2)c1Cl [Example 95, (S)-1′-(5-((2-amino-3-chloropyridin-4-yl)thio)pyrazin-2-yl)-2-chloro-4,6-dihydrospiro [cyclopenta[d]thiazole-5,4′-piperidin]-4-amine] | – | 73 | – | – | 10 |
| COc1nccc(Sc2cnc(N3CCC4(CC3)Cc3ncccc3[C@H]4N)cn2)c1Cl [Example 99, (S)-1′-(5-((3-chloro-2-methoxy-pyridin-4-yl)thio)pyrazin-2-yl)-5,7-dihydrospiro [cyclopenta[b]pyridine-6,4′-piperidin]-5-amine] | – | 89 | – | – | 18 |
| COc1nccc(Sc2ncc(N3CCC4(CC3)Cc3ncccc3[C@H]4N)nc2N)c1Cl [Example 100, (S)-1′-(6-amino-5-((3-chloro-2-methoxypyridin-4-yl)thio)pyrazin-2-yl)-5,7-dihydro-spiro[cyclopenta [b]pyridine-6,4′-piperidin]-5-amine] | – | 88 | – | – | 30 |
| N[C@@H]1c2cccnc2CC12CCN(c1cnc(Sc3ccnc(Cl)c3Cl)cn1)CC2 [Example 104, (S)-1′-(5-((2,3-dichloropyridin-4-yl)thio)pyrazin-2-yl)-5,7-dihydrospiro [cyclopenta [b]pyridine-6,4′-piperidin]-5-amine] | – | 87 | – | – | 9 |
| Nc1cc(Sc2cnc(N3CCC4(CC3)Cc3ncccc3[C@H]4N)cn2)c(Cl)cn1 [Example 112, (S)-1′-(5-((2-amino-5-chloro-pyridin-4-yl)thio)pyrazin-2-yl)-5,7-dihydrospiro [cyclopenta [b]pyridine-6,4′-piperidin]-5-amine] | – | 87 | – | – | 30 |
| Nc1nc(N2CCC3(CC2)Cc2ncccc2C3N)cnc1Sc1ccnc(N)c1Cl (stereo not drawn) [Example 121, 1′-(6-amino-5-((2-amino-3-chloropyridin-4-yl)thio)pyrazin-2-yl)-5,7-dihydrospiro [cyclopenta[b]pyridine-6,4′-piperidin]-5-amine] | – | – | – | 56 | – |
| Nc1nc(N2CCC3(CC2)Cc2ccc(O)cc2[C@H]3N)cnc1Sc1ccnc(N)c1Cl [Example 137, (S)-1-amino-1′-(6-amino-5-((2-amino-3-chloropyridin-4-yl)thio)pyrazin-2-yl)-1,3-dihydrospiro[indene-2,4′-piperidin]-6-ol] | – | 89 | – | – | 3.3 |
| N=C1c2cscc2CC12CCN(c1cnc(Sc3ccnc(N)c3Cl)c(N)n1)CC2 [Example 146, 3-((2-amino-3-chloropyridin-4-yl)thio)-6-(4-imino-4H,6H-spiro [cyclopenta[c]thiophene-5,4′-piperidin]-1′-yl)pyrazin-2-amine] | – | 82 | – | 12 | – |
| Nc1nccc(Sc2cnc(N3CCC4(CC3)Cc3scnc3[C@H]4N)cn2)c1Cl [Example 152, (S)-1′-(5-((2-amino-3-chloropyridin-4-yl)thio)pyrazin-2-yl)-4,6-dihydrospiro[cyclopenta[d]thiazole-5,4′-piperidin]-4-amine] | – | – | – | 3 | – |
| Nc1nc(N2CCC3(CC2)Cc2ncsc2[C@H]3N)cnc1Sc1ccnc(N)c1Cl [Example 155, (S)-1′-(6-amino-5-((2-amino-3-chloropyridin-4-yl)thio)pyrazin-2-yl)-4,6-dihydrospiro[cyclopenta[d]thiazole-5,4′-piperidin]-6-amine] | – | – | – | 3 | – |
| Nc1nccc(Sc2cnc(N3CCC4(CC3)Cc3ncsc3[C@H]4N)cn2)c1Cl [Example 156, (S)-1′-(5-((2-amino-3-chloropyridin-4-yl)thio)pyrazin-2-yl)-4,6-dihydrospiro[cyclopenta[d]thiazole-5,4′-piperidin]-6-amine] | – | 80 | – | – | 46.1 |
